Common to all, as to assay: growth of human tumour cells (NCI), 48 h
Test [1] relates to HL-60(TB) leukemia.
Test [2] concerns UACC-62 melanoma.
Test [3] deals with BT-549 breast.
The subject of test [4] is NCI/ADR-RES ovarian.
Test [5] has as its system HCT-116 colon.
The subject of test [6] is A549 NSCLC.
Test [7] has as its system M14 melanoma.
For test [8], the system named is OVCAR-3 ovarian.

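Method: 48-hour compound exposure of cells in 96-well plates, five concentrations, linear interpolation of endpoints. The concentration for 50% growth inhibition is given as GI50. TGI is the concentration that stops growth completely.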

As to `O=C(c1ccco1)c1c(C(F)(F)F)n([O-])c2cc(C(F)(F)F)ccc2[n+]1=O`, the GI50 in test [1] is 0.185 µM; in test [2] it was 1.44 µM; in test [3], 0.486 µM; in test [4], 0.801 µM; in test [5], 0.23 µM; in test [6] it was 0.445 µM. Moreover, the values for the GI50 in test [7] and in test [8] were 1.62 µM and 1.43 µM, respectively. The TGI amounted to 0.484 µM in test [1]; 2.89 µM in test [2]; 1.09 µM in test [3]; 4.33 µM in test [4]; 1.31 µM in test [5]; 1.02 µM in test [6]. Also, the figures for the TGI in test [7] and in test [8] were 3.05 µM and 3.13 µM, respectively.

For `O=C(C#Cc1ccccc1)C1=Cc2ccccc2OC1`, the TGI in test [1] was above 100 µM; in test [2], 4.26 µM; in test [3], 5.16 µM; in test [4], 14.4 µM; in test [5] it was 4.21 µM; in test [6], above 37.6 µM. The TGI in test [7] worked out at 8.21 µM; in test [8], 5.35 µM.

Consider `CCCCCCCC(=O)SCC/C=C/[C@@H]1CC(=O)NCc2nc(cs2)C2=N[C@@](C)(CS2)C(=O)N[C@@H](C(C)C)C(=O)N1`, for which the GI50 in test [1] was 0.013 µM; in test [2], below 0.01 µM; in test [3], 0.0604 µM; in test [4], 26.7 µM; in test [5], below 0.01 µM; in test [6] it was 0.0273 µM. In addition, the values for the GI50 in test [7] and in test [8] were 0.0323 µM and 0.015 µM, respectively. Besides, the TGI in test [1] is above 100 µM; in test [2], 0.165 µM; in test [3] it was above 66.8 µM; in test [4], above 100 µM; in test [5] it was 0.035 µM; in test [6], 1.53 µM. Moreover, the TGI in test [7] is above 100 µM; in test [8], 0.806 µM.

`O=CN1N=C(c2cccc(Nc3ccnc4cc(Cl)ccc34)c2)CC1c1ccccc1` (stereo unspecified): the GI50 was 0.213 µM in test [1]; 0.444 µM in test [2]; 0.207 µM in test [3]; 0.29 µM in test [4]; 0.364 µM in test [5]; 0.501 µM in test [6]. Moreover, the results for the GI50 in test [7] and in test [8] were 0.284 µM and 0.269 µM, respectively. In addition, the TGI in test [1] is 0.487 µM; in test [2], 21.8 µM; in test [3] it was 1.51 µM; in test [4], 1.17 µM; in test [5], 1.63 µM; in test [6] it was above 26.2 µM. The TGI in test [7] was 6.75 µM; in test [8], 0.774 µM.

On to `Cc1nc2ccccn2c1NC(=O)NNC(=S)Nc1ccc(F)cc1`, for which the GI50 in test [1], in test [2], in test [3], in test [4], in test [5] and in test [6] was above 100 µM each time. Besides, the GI50 in test [7] and in test [8] was above 100 µM each time. The TGI in test [1], in test [2], in test [3], in test [4], in test [5] and in test [6] was above 100 µM in each case. Besides, the TGI in test [7] and in test [8] was above 100 µM throughout.

Consider `O=C1C(=O)c2ccccc2C(O)=C1CCCc1ccc(C2CCCCC2)cc1`, for which the GI50 in test [1] was 2.94 µM; in test [2], 0.816 µM; in test [3], 3.19 µM; in test [4] it was 5.66 µM; in test [5], 2.01 µM; in test [6], 3.93 µM. For the same compound, the GI50 in test [7] was 5.93 µM; in test [8], 0.96 µM. The TGI was 28.5 µM in test [1]; 19.4 µM in test [2]; 39.3 µM in test [3]; 76.5 µM in test [4]; 14.3 µM in test [5]; above 100 µM in test [6]. The TGI in test [7] was 22.4 µM; in test [8] it was 15.2 µM.

Regarding `NC(=O)c1cccc(OCC(O)CO)c1` (stereo unspecified), the TGI in test [1], in test [2], in test [3], in test [4], in test [5] and in test [6] was above 100 µM throughout. Also, the TGI in test [7] and in test [8] was above 100 µM throughout.

`CC(=O)O[C@H]1C(=O)[C@@]2(C)[C@H]([C@H](OC(=O)c3ccccc3)[C@]3(O)C[C@H](OC(=O)[C@H](OC(=O)OC[C@H]4COC(C)(C)O4)[C@@H](NC(=O)c4ccccc4)c4ccccc4)C(C)=C1C3(C)C)[C@]1(OC(C)=O)CO[C@@H]1C[C@@H]2O`: the GI50 was 0.0168 µM in test [1]; 0.046 µM in test [2]; 0.0576 µM in test [3]; above 33.3 µM in test [4]; 0.00596 µM in test [5]; 0.0295 µM in test [6]. For the same compound, the GI50 was 0.0171 µM in test [7] and 0.0109 µM in test [8]. For the same compound, the TGI in test [1], in test [2], in test [3], in test [4], in test [5] and in test [6] was above 33.3 µM throughout. Also, the TGI came out at 0.133 µM in test [7] and 0.252 µM in test [8].

As to `CC(=O)NC(CSC1=C2NC(=O)\C=C/C=C/C=C\C(C)C(O)CC(=O)/C(C)=C\CC(O)/C=C/C(C)C(O)C(C)C=C(C)C(=O)c3c(O)c(C)cc(c3C1=O)C2=O)C(=O)O` (stereo unspecified), the TGI in test [1] is 73.2 µM; in test [2], above 100 µM; in test [3], above 100 µM; in test [4], above 100 µM; in test [5] it was above 100 µM; in test [6] it was above 100 µM. Moreover, the TGI in test [7] and in test [8] was above 100 µM each time.

`Nc1nc2cc(CC[C@H]3C[C@@H](n4ccc5c(N)ncnc54)[C@H](O)[C@@H]3O)ccc2cc1Br`: the GI50 is 14.1 µM in test [1]; 8.95 µM in test [2]; 2.41 µM in test [3]; 10.5 µM in test [4]; 2.45 µM in test [5]; 12.4 µM in test [6]. Further, the GI50 in test [7] was 11.4 µM; in test [8] it was 10 µM. Moreover, the TGI in test [1] came out at 38.5 µM; in test [2], 21.7 µM; in test [3], 16 µM; in test [4] it was 26.9 µM; in test [5], 19.9 µM; in test [6] it was 34.3 µM. The TGI in test [7] stood at 25.6 µM; in test [8], 26.1 µM.
